Laboratory results as given in ChEMBL document CHEMBL1143452, “Synthesis and biological evaluation of 1-amino-1,1-bisphosphonates derived from fatty acids against Trypanosoma cruzi targeting farnesyl pyrophosphate synthase” (Bioorg Med Chem Lett, 2005).

How the values were obtained:
[1] = tested on: Trypanosoma cruzi; assay: Inhibitory concentration against growth of Trypanosoma cruzi epimastigotes; format: functional, organism-based
[2] = tested on: Trypanosoma cruzi; assay: Inhibitory concentration against growth of Trypanosoma cruzi amastigotes; format: functional, organism-based

Structure (SMILES) | IC50 [1] [µM] | IC50 [2] [µM]
CCCC(N)(P(=O)(O)O)P(=O)(O)O | > 100 | > 85
CCCCC(N)(P(=O)(O)O)P(=O)(O)O | > 100 | > 85
CCC(N)(P(=O)(O)O)P(=O)(O)O | > 100 | > 85
CCCCCC(N)(P(=O)(O)O)P(=O)(O)O | > 100 | 77
CC(N)(P(=O)(O)O)P(=O)(O)O | > 100 | > 100
CCCCCCC(N)(P(=O)(O)O)P(=O)(O)O | > 100 | 72
